In ChEMBL document CHEMBL1201862, “PubChem BioAssay data set” (2004):
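Test compounds were applied to cells in 96-well plates for 48 hours at 5 doses. GI50: concentration for 50% inhibition of growth.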 The source made the active and inactive calls. Rule as the data show it: active = GI50 up to about 1.1 µM and inactive = higher.

Columns and labels:
Assay in all cases: NCI-60 cell line screen, 48 h
[1] = system: SNB-78
[2] = system: HOP-92
[3] = system: CAKI-1
[4] = system: TK-10
[5] = system: KM12
[6] = system: HT-29
[7] = system: SK-MEL-28
[8] = system: A498
[9] = system: SNB-19
[10] = system: U-251
[11] = system: EKVX
[12] = system: RXF 393
[13] = system: UACC-257
[14] = system: HCC 2998
[15] = system: SK-OV-3
[16] = system: HCT-116
[17] = system: ACHN
[18] = system: HCT-15
[19] = system: HOP-62
[20] = system: SK-MEL-2
[21] = system: HL-60
[22] = system: LXFL 529
[23] = system: K562
[24] = system: MOLT-4
[25] = system: SW-620
[26] = system: SN12C
[27] = system: XF498
[28] = system: M14
[29] = system: CCRF-CEM
[30] = system: A549
[31] = system: SK-MEL-5
[32] = system: HOP-18
[33] = system: LOX IMVI
[34] = system: IGROV-1
[35] = system: NCI-H460
[36] = system: DLD-1
[37] = system: 786-0
[38] = system: UACC-62
[39] = system: COLO 205
[40] = system: KM-20L2
[41] = system: OVCAR-4
[42] = system: OVCAR-8
[43] = system: DMS-114
[44] = system: OVCAR-3
[45] = system: UO-31
[46] = system: SF-539
[47] = system: SF-295
[48] = system: NCI-H23
[49] = system: OVCAR-5
[50] = system: SNB-75
[51] = system: Malme-3M
[52] = system: RPMI-8226
[53] = system: NCI-H522
[54] = system: SF-268
[55] = system: SR
[56] = system: M19-MEL
[57] = system: NCI-H226
[58] = system: DMS-273

Compound: CCCOP1(=O)C=CC(Cl)=C(C)C1 (centres undefined)
- GI50 [1]: 53.1 µM (inactive)
- GI50 [2]: 33.1 µM (inactive)
- GI50 [3]: 32.4 µM (inactive)
- GI50 [4]: 42.4 µM (inactive)
- GI50 [5]: 20.8 µM (inactive)
- GI50 [6]: 55.3 µM (inactive)
- GI50 [7]: 19.3 µM (inactive)
- GI50 [8]: 82.8 µM (inactive)
- GI50 [9]: > 70 µM (inactive)
- GI50 [10]: 40.1 µM (inactive)
- GI50 [11]: > 51.5 µM (inactive)
- GI50 [12]: 16 µM (inactive)
- GI50 [13]: 26.9 µM (inactive)
- GI50 [14]: > 63.1 µM (inactive)
- GI50 [15]: > 100 µM (inactive)
- GI50 [16]: 17.1 µM (inactive)
- GI50 [17]: 24.9 µM (inactive)
- GI50 [18]: 16.8 µM
- GI50 [19]: > 100 µM (inactive)
- GI50 [20]: 23.9 µM (inactive)
- GI50 [21]: 7.53 µM (inactive)
- GI50 [22]: 23.7 µM (inactive)
- GI50 [23]: 12 µM (inactive)
- GI50 [24]: 10.9 µM (inactive)
- GI50 [25]: 19.3 µM (inactive)
- GI50 [26]: 69.5 µM (inactive)
- GI50 [27]: 23.6 µM (inactive)
- GI50 [28]: 33 µM (inactive)
- GI50 [29]: 11.9 µM (inactive)
- GI50 [30]: > 54.3 µM (inactive)
- GI50 [31]: 45.6 µM (inactive)
- GI50 [32]: 50.4 µM (inactive)
- GI50 [33]: 32.3 µM (inactive)
- GI50 [34]: 97.7 µM (inactive)
- GI50 [35]: 50.7 µM (inactive)
- GI50 [36]: 20.6 µM (inactive)
- GI50 [37]: 27.7 µM (inactive)
- GI50 [38]: 19.1 µM (inactive)
- GI50 [39]: 18.4 µM (inactive)
- GI50 [40]: 48.1 µM (inactive)
- GI50 [41]: 36.6 µM (inactive)
- GI50 [42]: 21.1 µM (inactive)
- GI50 [43]: 25.4 µM (inactive)
- GI50 [44]: 27.4 µM (inactive)
- GI50 [45]: 81.7 µM (inactive)
- GI50 [46]: > 46 µM (inactive)
- GI50 [47]: 45.8 µM (inactive)
- GI50 [48]: 30.8 µM (inactive)
- GI50 [49]: 20.7 µM (inactive)
- GI50 [50]: 55.8 µM (inactive)
- GI50 [51]: 21 µM (inactive)
- GI50 [52]: 22.3 µM (inactive)
- GI50 [53]: 15.9 µM (inactive)
- GI50 [54]: 46.6 µM (inactive)

Compound: O=C1CC2(C[C@@H]3CCCCCCCCC[C@@H](C3)C2)N1 (some centres undefined)
- GI50 [1]: 23.4 µM (inactive)
- GI50 [2]: 10.8 µM (inactive)
- GI50 [3]: 12.6 µM (inactive)
- GI50 [4]: 17.1 µM (inactive)
- GI50 [5]: 17.8 µM (inactive)
- GI50 [6]: 12.8 µM (inactive)
- GI50 [7]: 17.2 µM (inactive)
- GI50 [8]: 16.7 µM (inactive)
- GI50 [9]: 20 µM (inactive)
- GI50 [10]: 16.6 µM (inactive)
- GI50 [11]: 14.4 µM (inactive)
- GI50 [12]: 16.2 µM (inactive)
- GI50 [13]: 12.2 µM (inactive)
- GI50 [14]: 12.2 µM (inactive)
- GI50 [15]: 15.1 µM (inactive)
- GI50 [16]: 19.5 µM (inactive)
- GI50 [17]: 15.5 µM (inactive)
- GI50 [18]: 17.7 µM
- GI50 [19]: 17.1 µM (inactive)
- GI50 [20]: 19.8 µM (inactive)
- GI50 [21]: 15.1 µM (inactive)
- GI50 [22]: 15.7 µM (inactive)
- GI50 [23]: 20.8 µM (inactive)
- GI50 [24]: 12.4 µM (inactive)
- GI50 [25]: 18.7 µM (inactive)
- GI50 [26]: 16.8 µM (inactive)
- GI50 [27]: 12.2 µM (inactive)
- GI50 [28]: 14.8 µM (inactive)
- GI50 [29]: 17.5 µM (inactive)
- GI50 [30]: 21.8 µM (inactive)
- GI50 [31]: 16.4 µM (inactive)
- GI50 [55]: 10.8 µM (inactive)
- GI50 [32]: 10.5 µM (inactive)
- GI50 [34]: 12.9 µM (inactive)
- GI50 [35]: 16.6 µM (inactive)
- GI50 [37]: 16.1 µM (inactive)
- GI50 [56]: 15.2 µM (inactive)
- GI50 [38]: 15.8 µM (inactive)
- GI50 [39]: 16.7 µM (inactive)
- GI50 [40]: 15.6 µM (inactive)
- GI50 [41]: 17.9 µM (inactive)
- GI50 [42]: 17.5 µM (inactive)
- GI50 [43]: 16.7 µM (inactive)
- GI50 [57]: 14.3 µM (inactive)
- GI50 [45]: 14.4 µM (inactive)
- GI50 [46]: 15.8 µM (inactive)
- GI50 [47]: 17 µM (inactive)
- GI50 [48]: 16.7 µM (inactive)
- GI50 [49]: 15.4 µM (inactive)
- GI50 [50]: 6.71 µM (inactive)
- GI50 [51]: 11.8 µM (inactive)
- GI50 [58]: 12.3 µM (inactive)
- GI50 [52]: 13.7 µM (inactive)
- GI50 [53]: 16.3 µM (inactive)
- GI50 [54]: 20.4 µM (inactive)
